Results published in patent publication US6627732B1, “Glutathione derivatives and their dosage forms” (Teijin Limited, priority 1998, dated 2003).

Columns and labels:
[1] = system: rabbit models of suppressed hematopoietic function by CP administration; assay: Recovery of neutrophil counts in rabbit models of suppressed hematopoietic function by cyclophosphamide (Example 29); assay type: in vivo; details: CP rabbits; 20 mg/kg-body weight/day, days 3 to 7; Example 4 in fat emulsion, Comparative Example 1 in HPCD solution
Description: Regarding the effect of promoting the recovery of neutrophil counts in rabbit models of suppressed hematopoietic function by cyclophosphamide (hereinafter referred to as CP) administration, the pharmaceutical composition comprising the fat emulsion containing the glutathione derivative of Example 4 of the present invention and the pharmaceutical composition of the conventional technology of Comparative Example 1 were compared.
(§1) (1) Animals used and the keeping condition: Male Japanese white rabbits, 17-week old, (Kbl:JW) purchased from Kitayama Labes Co., Ltd. were used. The animal feed (LRC4, manufactured by Oriental Yeast Co., Ltd.) and drinking water (well water treated with 0.4±0.2 ppm hypochlorous acid) were given ad libitum during the period of the experiment. The animals were each housed in a hanging-type rat cage (manufactured by Nippon Cage K.K.) and kept at a temperature of 24±2° C. and a humidity of 55±5%.
(2) Creation of rabbit models of suppressed hematopoietic function by CP administration; CP (manufactured by Wako Pure Chemicals Industries, Ltd.) was intravenously administered at 60 mg/kg-body weight/day (dosage volume was 2 ml/kg-body weight) to rabbits described in (1) on day 1 and 2 of the experiment. […] Blood was also drawn before the administration on day 1 of the experiment, and the value determined for the blood was used as the pre-administration value. […]

[2] = Intravenous administration of high dosages, local reaction; assay type: in vivo; details: high dosages administered intravenously
HL-60 cells = assay: HL-60 cell differentiation induction, NBT reducing activity, DMSO as solvent (Example 21); assay type: cell-based, human
Description: In a manner similar to that in Example 20, the in vitro activity of the glutathione derivatives of Examples 4, 5, and 8, and Comparative Example 3 were compared.
(1) The differences from Example 20 were: First, since the glutathione derivatives of Examples and Comparative Examples used dimethyl sulfoxide (DMSO) as the solvent because of the solubility of the compounds, the system contained 0.1-0.3 (v/v)% DMSO instead of ethanol. […] This caused slight differences in the sensitivity in the test results of the glutathione derivative of Example 4. Furthermore, in Example 21, the differentiation induction on HL-60 cells into granulocytic cells in the coexistence of 9-cis-RA was only evaluated.

normal healthy rats = assay: Neutrophil counts and bone marrow cells in normal healthy rats (Example 28); assay type: in vivo, rat
Protocol: The effects of increasing neutrophil counts of the compound of Example 4 in normal healthy rats were studied.
as §1, with “(1)” for “(1) Animals used and the keeping condition:”, “SD rats, 6-week” for “Japanese white rabbits, 17-week”, “old,” for “old, (Kbl:JW)”, “Nippon SLC” for “Kitayama Labes Co., Ltd.”, “(MF,” for “(LRC4,”
(2) The glutathione derivative of Example 4 combined with the fat emulsion at 10, 20, or 30 mg/kg-body weight/day, and the fat emulsion alone as the negative control were each repeatedly administered into the tail vein for 6 days from day 1 to 6 of the experiment. Dosage was 10 ml/kg-body weight/day. From day 1 to 10 of the experiment, blood was drawn everyday from the jugular vein and the EDTA-2K-treated blood was obtained. Then the blood was used to determine the neutrophil counts using a general chemistry test instrument (Technicon H-1E, manufactured by Bayer-Sankyo K.K.).
Part of the negative control group on days 1, 7, and 10, and part of the Example 4—the fat emulsion 30 mg/kg-body weight/day administration group on days 3, 5, 7, and 10 of the experiment were bled to death from the abdominal aorta under anesthesia by the intraperitoneal administration of pentobarbital sodium. Then, the femoral bone marrow was harvested, smears were prepared therefrom using the wedge method, stained by the May-Giemsa stain, and examined under a microscope to determine the fractionation of nucleated bone marrow cells.

IL-1β = assay: Plasma level of IL-1β in normal healthy rats (ELISA); assay type: in vivo, rat; details: fat emulsion 20 mg/kg-body weight/day, days 3, 5 and 7
Description: , plasma obtained form the EDTA-2K-treated blood on days 3, 5, and 7 of the experiment was used to determine plasma levels of interleukin 1β (hereinafter referred to as IL-1β) and tumor necrosis factor (hereinafter referred to as TNFα). For the determination, the rat IL-1β-ELISA system (manufactured by Amersham Pharmacia Biotek Co., Ltd.), the rat TNFα-ELISA system (manufactured by Amersham Pharmacia Biotek Co., Ltd.), and the BioRad microplate reader (MODEL550, Nippon BioRad laboratories, Co., Ltd.).

SMILES | Neutrophil counts compared to the negative control group [1] | Local reaction at the site of administration [2] | Differentiation induction activity compared with Comparative Example 3 (HL-60 cells; HL-60, coexistence of 9-cis-RA) | Ratio of NBT reduction activity-positive cells (HL-60 cells; compound 3 × 10^−6 M in DMSO, Solvent control (EtOH - 0.1%)) | Ratio of NBT reduction activity-positive cells (HL-60 cells; compound 3 × 10^−6 M in DMSO, with 9-cis-RA (5 × 10^−9 M)) | Ratio of NBT reduction activity-positive cells (HL-60 cells; compound 3 × 10^−7 M in DMSO, Solvent control (EtOH - 0.1%)) | Ratio of NBT reduction activity-positive cells (HL-60 cells; compound 3 × 10^−7 M in DMSO, with 9-cis-RA (5 × 10^−9 M)) | Ratio of NBT reduction activity-positive cells (HL-60 cells; compound 3 × 10^−8 M in DMSO, Solvent control (EtOH - 0.1%)) | Ratio of NBT reduction activity-positive cells (HL-60 cells; compound 3 × 10^−8 M in DMSO, with 9-cis-RA (5 × 10^−9 M)) | Ratio of NBT reduction activity-positive cells (HL-60 cells; compound 10^−6 M in DMSO, Solvent control (EtOH - 0.1%)) | Ratio of NBT reduction activity-positive cells (HL-60 cells; compound 10^−6 M in DMSO, with 9-cis-RA (5 × 10^−9 M)) | Ratio of NBT reduction activity-positive cells (HL-60 cells; compound 10^−7 M in DMSO, Solvent control (EtOH - 0.1%)) | Ratio of NBT reduction activity-positive cells (HL-60 cells; compound 10^−7 M in DMSO, with 9-cis-RA (5 × 10^−9 M)) | Ratio of NBT reduction activity-positive cells (HL-60 cells; compound 10^−8 M in DMSO, Solvent control (EtOH - 0.1%)) | Ratio of NBT reduction activity-positive cells (HL-60 cells; compound 10^−8 M in DMSO, with 9-cis-RA (5 × 10^−9 M)) | Neutrophil counts in the peripheral blood relative to the negative control group (normal healthy rats; fat emulsion 30 mg/kg-body weight/day iv, days 1-6, days 2 and 5-8, significance 5%-1%) | Neutrophilic myelocytic cells having the dividing ability in bone marrow (normal healthy rats; fat emulsion 30 mg/kg-body weight/day, days 3 and 5) | Neutrophilic myelocytic cells having no dividing ability in bone marrow (normal healthy rats; fat emulsion 30 mg/kg-body weight/day, maximum on day 7) | Plasma level of IL-1β relative to the negative control group (IL-1β)
CCOC(=O)[C@@H](N)CCC(=O)N[C@@H](CSCc1ccccc1)C(=O)N[C@@H](C(=O)OCC)c1ccccc1.Cl [Comparative Example 1, Glu(Cys(Bzl)-D-Phg-O(Et))-O(Et)hydrochloride, reference compound] | no changes were observed | can cause inflammation at the site of administration |  |  |  |  |  |  |  |  |  |  |  |  |  |  |  |  | 
CCCCCCCCCCCCCCCCOC(=O)[C@@H](N)CCC(=O)N[C@@H](CSCc1ccccc1)C(=O)N[C@@H](C(=O)OCC)c1ccccc1.Cl [Example 4, Glu(Cys(Bzl)-D-Phg-OEt)-O(Hexadecyl)hydrochloride] | statistically significant increase in neutrophil counts |  | activity higher than that of Comparative Example 3 | 0.6% | 29.9% | 0.9% | 11.0% | 0.7% | 3.1% | 0.3% | 21.2% | 0.7% | 5.6% | 0.6% | 2.5% | statistically significant increase in the neutrophil counts | increased | increases were observed on day 5, 7, and 10 | No increases
